From patent US8993612B2, “Modulators of calcium release-activated calcium channel and methods for treatment of non-small cell lung cancer” (Rhizen Pharmaceuticals SA, priority 2009, dated 2015)

Legend:
Format in all cases: cell-based
TNFα [1] = assay: Inhibition of TNFα release in PBMC; settings: Homo sapiens, Concanavalin A + PMA, 20 h, read-out: IC 50 PBMC TNFα
Procedure: (§1) Inhibition of cytokine IL-2, IL-4, IL-5 and TNF α was determined as described below.
(§2) PBMC from freshly collected HWB were isolated by density gradient using Histopaque and seeded in a 96-well plate. Cells were incubated with desired concentrations of the inhibitor for 15 min. Cytokine release was induced by the addition of Concanavalin A (25 μg/ml)+Phorbol Myristate Acetate (50 ng/ml) for IL-2 & TNFα or with Phytohemagglutinin (5 μg/ml) for IL-4 & IL-5 and incubated at 37° C. in an atmosphere containing […]. Supernatant was collected after 20 h (IL-2 & TNFα) or 48 h (IL-4 & IL-5) for estimation of cytokines by ELISA. Data were analysed using GraphPad Prism. IC50 values for each compound were determined based on the percent inhibition due to the test compound compared to the control.

TNFα [2] = assay: Inhibition of TNFα release in human whole blood; settings: Concanavalin A + PMA, 20 h, read-out: IC 50 Human Whole Blood TNFα
Procedure: as §1
as §2, with “Freshly” for “PBMC from freshly”, “was diluted with RPMI medium (1:4.5)” for “were isolated by density gradient using Histopaque”, “added to” for “seeded in”, “Wells” for “Cells”

IL-2 [3] = assay: Inhibition of IL-2 release in PBMC; settings: Homo sapiens, Concanavalin A + PMA, 20 h, read-out: IC 50 PBMC IL-2
Procedure: as §1, §2

IL-4 [4] = assay: Inhibition of IL-4 release in PBMC; settings: Homo sapiens, Phytohemagglutinin, 48 h, read-out: IC 50 PBMC IL-4
Procedure: as §1, §2

IL-5 [5] = assay: Inhibition of IL-5 release in human whole blood; settings: Phytohemagglutinin, 48 h, read-out: IC 50 Human Whole Blood IL-5
Procedure: as §1
as §2, with “Freshly” for “PBMC from freshly”, “was diluted with RPMI medium (1:4.5)” for “were isolated by density gradient using Histopaque”, “added to” for “seeded in”, “Wells” for “Cells”

IL-2 [6] = assay: Inhibition of IL-2 release in human whole blood; settings: Concanavalin A + PMA, 20 h, read-out: IC 50 Human Whole Blood IL-2
Procedure: as §1
as §2, with “Freshly” for “PBMC from freshly”, “was diluted with RPMI medium (1:4.5)” for “were isolated by density gradient using Histopaque”, “added to” for “seeded in”, “Wells” for “Cells”

CRAC channels = CRAC channels (Homo sapiens (Human), UniProt Q96D31); assay: In-vitro CRAC channel inhibition assay in Jurkat cells (thapsigargin-induced calcium influx)
CRAC channels, sequence (Q96D31 whole entry): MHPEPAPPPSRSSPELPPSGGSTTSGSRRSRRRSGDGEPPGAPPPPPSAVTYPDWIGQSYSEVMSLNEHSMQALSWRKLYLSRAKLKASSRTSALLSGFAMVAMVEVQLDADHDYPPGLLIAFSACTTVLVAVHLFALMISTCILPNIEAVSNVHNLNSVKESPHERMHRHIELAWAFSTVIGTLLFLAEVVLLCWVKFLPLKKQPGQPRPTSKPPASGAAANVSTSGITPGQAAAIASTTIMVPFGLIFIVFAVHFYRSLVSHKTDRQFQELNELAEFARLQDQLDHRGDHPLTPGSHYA
Procedure: Inhibition of CRAC channels was determined following thapsigargin (Sigma, Cat # T9033) induced endoplasmic calcium release in Jurkat cells. (see Yasurio Yonetoky et. al Bio. & Med. Chem. 14 (2006) 4750-4760). Cells were centrifuged and resuspended in equal volumes ° f Ca^2+ and Mg^2+ free Hanks buffer and Fluo-8 NW dye (ABD Bioquest, Inc., Sunnyvale, Calif.) loading solution at 2×10^5 cells/100 μl/well in 96-well black plate. Plate is incubated at 37° C./5% CO2 for 30 mM followed by further 15 mM incubation at room temperature. Test compounds (DMSO stocks diluted in Ca^2+ and Mg^2+ free Hanks buffer) at desired concentrations were added to the wells and incubated for […]. Thapsigargin (1 μM final concentration) was added to the wells and incubated for 15 min to inhibit the Sarco-endoplasmic reticulum Ca^2+ ATPase pump thereby depleting endoplasmic calcium and raising cytosolic calcium concentrations. Store-operated calcium entry was initiated by adding extracellular Ca^2+ to a final concentration of 1.8 mM. Fluorescence was monitored over […] on a plate reader (BMG Labtech., Germany) with excitation at 485 nm and an emission wavelength at 520 nm. Data were analyzed using GraphPad Prism. IC50 for each compound was determined based on the percent inhibition of thapsigargin-induced calcium influx into cells.

IL-4 [7] = assay: Inhibition of IL-4 release in human whole blood; settings: Phytohemagglutinin, 48 h, read-out: IC 50 Human Whole Blood IL-4
Procedure: as §1
as §2, with “Freshly” for “PBMC from freshly”, “was diluted with RPMI medium (1:4.5)” for “were isolated by density gradient using Histopaque”, “added to” for “seeded in”, “Wells” for “Cells”

IL-5 [8] = assay: Inhibition of IL-5 release in PBMC; settings: Homo sapiens, Phytohemagglutinin, 48 h, read-out: IC 50 PBMC IL-5
Procedure: as §1, §2

What does the source list for `O=C(Cn1nnc2ccccc21)Nc1ccc(-n2nc(C(F)(F)F)cc2C2CC2)cc1` [Example 20, 2-(1H-benzo[d][1,2,3]triazol-1-yl)-N-{4-[5-cyclopropyl-3-(trifluoromethyl)-1H-pyrazol-1-yl]phenyl}acetamide]?
IC50 (TNFα [1]): 138 nM; IC50 (TNFα [2]): 35.6 nM; IC50 (IL-2 [3]): 383 nM; IC50 (IL-4 [4]): 540 nM; IC50 (IL-5 [5]): 164 nM; IC50 (IL-2 [6]): 40.7 nM; IC50 (CRAC channels): 39.2 nM; inhibition at 1 µM (CRAC channels; 1 uM): 100%; IC50 (IL-4 [7]): 1230 nM; IC50 (IL-5 [8]): 149 nM
